Source: US7115728B1, “Human peroxisome proliferator activated receptor γ” (Ligand Pharmaceutical Incorporated, priority 1995, dated 2006)
One block for each compound: values may come before it.

Experiments:
hPPARα = target: T1, hPPARα (Homo sapiens, UniProt Q07869); assay: Co-transfection assay, activation of hPPARα, FIG. 2; type: cell-based; conditions: CV-1 cells transfected with 0.1 μg pCMVhPPARα; gemfibrozil final concentration printed as 100 M
T1 construct: expressed in transfected cells; host or cells: CV-1 cells
T1 sequence (Q07869 1-468): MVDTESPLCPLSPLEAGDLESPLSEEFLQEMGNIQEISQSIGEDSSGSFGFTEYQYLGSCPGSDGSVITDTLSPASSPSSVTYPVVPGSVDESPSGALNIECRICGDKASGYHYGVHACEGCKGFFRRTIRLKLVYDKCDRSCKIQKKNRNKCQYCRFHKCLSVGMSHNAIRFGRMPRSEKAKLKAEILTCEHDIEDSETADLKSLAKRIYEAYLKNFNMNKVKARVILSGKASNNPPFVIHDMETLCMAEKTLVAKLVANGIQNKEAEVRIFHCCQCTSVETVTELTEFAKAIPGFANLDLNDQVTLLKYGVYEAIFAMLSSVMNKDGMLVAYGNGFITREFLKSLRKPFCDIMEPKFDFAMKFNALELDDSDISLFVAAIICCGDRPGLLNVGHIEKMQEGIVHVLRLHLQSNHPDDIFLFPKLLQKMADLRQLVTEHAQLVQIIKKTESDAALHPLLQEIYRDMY
Method: CV-1 cells were transfected with 0.1 μg of pCMVhPPARα and 0.1 or 0.4 μg of pCMVhNUC1 or pCMVhPPARγ. Gemfibrozil was added to a final concentration of 100 µM.
(§1) Biochem. Molec. Biol. 41, 733–738).
Where indicated, 0–0.5 μg of hNUC1B plasmid or hPPARγ plasmid (repressor) was added. Repressor plasmid dosage was kept constant by the addition of appropriate amounts of the empty expression vector pBKCMV. Total amount of DNA was kept at 20 μg by the addition of pGEM DNA (Promega).
(§2) Control cells were treated with vehicle.
(§3) Each data point represents the mean of three transfections. Error bars represent the standard deviation from the mean.
hPPARα is activated in the presence of gemfibrozil. When hNUC1 or hPPARγ is contransfected into cells along with hPPARα, a dose dependant repression was observed (FIG. 2). Repression of hPPARα with hNUC1 is stronger than with hPPARγ. No repression with 0.1 μg of hPPARγ was observed while repression with 0.1 μg of hNUC1 was clearly seen. However, repression with 0.4 μg of hPPARγ was observed.

hPPARγ [1] = target: T2, hPPARγ (Homo sapiens, UniProt P37231); assay: Co-transfection assay, transactivation of hPPARγ (pCMVhPPARγ) in CV-1 cells, FIG. 1; conditions: CV-1 cells transfected with 0.1 μg pCMVhPPARγ; compared with empty vector pBKCMV (no receptor)
T2 sequence (P37231 with tags, fused parts or gaps limits assumed): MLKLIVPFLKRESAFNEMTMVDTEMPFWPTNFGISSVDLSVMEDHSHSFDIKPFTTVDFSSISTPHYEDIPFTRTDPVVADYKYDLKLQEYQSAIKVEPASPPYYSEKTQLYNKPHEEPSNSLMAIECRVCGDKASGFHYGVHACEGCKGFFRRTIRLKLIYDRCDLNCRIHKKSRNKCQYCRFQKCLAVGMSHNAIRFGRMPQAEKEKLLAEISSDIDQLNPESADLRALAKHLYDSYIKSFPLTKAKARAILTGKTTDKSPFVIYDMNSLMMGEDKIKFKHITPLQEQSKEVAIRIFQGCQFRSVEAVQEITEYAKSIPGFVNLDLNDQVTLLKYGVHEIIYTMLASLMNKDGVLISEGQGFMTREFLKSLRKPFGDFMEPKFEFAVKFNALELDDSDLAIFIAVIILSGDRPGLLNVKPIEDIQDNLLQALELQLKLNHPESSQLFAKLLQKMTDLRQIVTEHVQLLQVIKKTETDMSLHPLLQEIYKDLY
Method: CV-1 cells were transfected with 0.1 μg pCMVhPPARγ or the empty expression vector pBKCMV (no receptor).
CV-1 or HepG2 cells were grown in Dulbecco's modified Eagle's medium (DMEM) supplemented with 10% (v/v) fetal bovine serum (Hyclone), 2 mM L-glutamine, and 55 μg/ml gentamicin (BioWhittaker). Cells were plated at 2×10^5 cells per well for HepG2 in 12 well cell culture dishes (Costar). The media was replaced with fresh media 20 hours later.
After 14 hours the cells were washed with 1×PBS and fresh media added (DMEM with 10% charcoal stripped fetal bovine serum (Hyclone) plus the above supplements). Ligands or PPAR activators were added to the final concentrations indicated. Control cells were treated with vehicle.
After another 24 hours the cells were harvested and the luciferase and β-galactosidase activities quantified on a Dynatech ML 1000 luminometer and a Beckman Biomek 1000 workstation respectively. The normalized response is the luciferase activity of the extract divided by the β-galactosidase activity of the same. Each data point represents the mean of three transfections. Error bars represent the standard deviation from the mean.
Control cells received an equivalent amount of vehicle. In the repression assays repressor plasmid dosage was kept constant by adding the appropriate amount of the empty expression vector pBKCMV.

mPPARγ = conditions: Tontonoz et al. 1994; Kliewer et al.; cited from earlier work
hPPARγ [2] = target: T3, hPPARγ (Homo sapiens, UniProt P37231); assay: Co-transfection assay with pCMVhPPARγ3 and pPREA3-tk-LUC reporter in CV-1 cells, FIG. 4; type: cell-based; conditions: CV-1 cells transfected with pCMVhPPARγ3; pPREA3-tk-LUC; 1 μM compound; read-out: fold induction of reporter gene
T3 construct: expressed in transfected cells; host or cells: CV-1 cells
T3 sequence (P37231 31-505): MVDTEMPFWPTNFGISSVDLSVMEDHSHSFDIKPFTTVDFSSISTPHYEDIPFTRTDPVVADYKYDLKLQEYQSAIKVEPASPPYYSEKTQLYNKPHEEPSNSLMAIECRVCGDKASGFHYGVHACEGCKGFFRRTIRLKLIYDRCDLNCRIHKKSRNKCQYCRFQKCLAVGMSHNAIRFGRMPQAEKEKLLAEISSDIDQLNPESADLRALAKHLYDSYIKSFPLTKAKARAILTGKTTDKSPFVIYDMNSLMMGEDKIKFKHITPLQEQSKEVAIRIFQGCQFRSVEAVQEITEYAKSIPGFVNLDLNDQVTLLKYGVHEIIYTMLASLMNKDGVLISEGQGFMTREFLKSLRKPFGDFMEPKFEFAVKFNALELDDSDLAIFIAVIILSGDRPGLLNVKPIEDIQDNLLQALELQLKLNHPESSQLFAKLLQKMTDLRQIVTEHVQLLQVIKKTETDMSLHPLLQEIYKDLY
Method: (§4) CV-1 cells were transfected with pCMVhPPARγ3 or the empty expression vector pBKCMV (no receptor). Thiazolidinedione was added.
as §1, §2, §3
To increase the level of hPPARγ protein synthesis, Applicant deleted a region containing the two inframe upstream ATG codons since these are absent in mouse PPARγ. pCMVhPPARγ was digested with NcoI, blunt ended with Klenow, and digested again with KpnI. The insert was isolated and directionally cloned into pBKCMV plasmid, which was digested with XbaI (blunt ended with Klenow) and KpnI. In the ensuing plasmid pCMVhPPARγ3, the translation initiation codon is within the context of a stronger Kozak translation initiation sequence.
(§5) A cotransfection assay was performed in CV-1 cells with the pPREA3-tk-LUC and 1 μM thiazolidinedione (BRL 49,653, see Ibrahimi et al., Molecular Pharmacology 46:1070–1076, 1994). Thiazolidinedione is an insulin sensitizer and has potential use in the treatment of non-insulin dependant diabetes mellitus.

[3] = tested on: CV-1 cells transfected with the empty expression vector pBKCMV (no receptor); assay: Co-transfection assay, control CV-1 cells transfected with empty expression vector, FIG. 4; type: cell-based, monkey; conditions: CV-1 cells transfected with the empty expression vector (no receptor); 1 μM compound
Method: as §4, §1, §2, §3, §5

- activation of hPPARα (hPPARα): activated
Structure (SMILES): Cc1ccc(C)c(OCCCC(C)(C)C(=O)O)c1 [gemfibrozil]

Structure (SMILES): CC1=C(/C=C/C(C)=C\C=C\C(C)=C\C(=O)O)C(C)(C)CCC1 [9-cis retinoic acid]
- activation of hPPARγ (fold induction of reporter gene versus control cells) (hPPARγ [1]): same fold activation as in control transfections

Structure (SMILES): CCCCCC#CCC#CCC#CCC#CCCCC(=O)O [ETYA, 5,8,11,14-eicosatetraynoic acid]
- transcriptional activation of mPPARγ (mPPARγ): transcriptionally activated

Structure (SMILES): CCCc1c(OCCCCc2nnn[nH]2)ccc(C(C)=O)c1O [LY-171,883]
- transcriptional activation of mPPARγ (mPPARγ): transcriptionally activated

- fold induction at 1 µM (hPPARγ [2]): 25
Structure (SMILES): O=C1CSC(=O)N1 [Thiazolidinedione]
- fold activation of reporter gene [3]: 7 fold
